In patent US7879792B2, “Synthetic peptide inhibitors of thrombin and thrombin activation of protease activated receptors 1 and 4” (The Regents of the University of Michigan, priority 2005, dated 2011):
Read-outs that look alike come from different tables or passages of the source. Where a SMILES comes first, the peptide text is derived from it.

Columns and labels:
[1] = stability testing in intestinal homogenate; format: in vitro ADME; settings: rat
Method: (§1) Stability testing of the various compounds was performed in buffer, intestinal perfusate, and an intestinal homogenate preparation to assess the potential oral availability of these compounds. Initial studies prepared the tissue for stability studies. The buffer used in stability testing is 10 mM MES (pH 6.5) containing 135 mM NaCl, and 5 mM KCl. To collect intestinal perfusate from rats, male Sprague Dawley rats, 8 to 10 weeks old, weighing 250 to 350 g were fasted 15 to 18 hours with water given ad libitum. Anesthesia was administered by intramuscular injection of pentobarbital/ketamine (40 mg/kg and 80 mg/kg, respectively). The rats were placed on a warming pad under a surgical lamp to maintain body temperature and jejunal intestinal segments were exposed through a midline, abdominal incision. Approximately 20 cm segment of the jejunum (2 to 4 cm distal to the ligament of Treitz) was cannulated and the intestinal segments were perfused with 10 mM MES (pH 6.5) containing 135 mM NaCl, and 5 mM KCl at a flow-rate of 0.5 ml/min at 37° C. using a constant infusion pump (Harvard Apparatus, South Natick, Mass.). The collected perfusate was stored at −80° C. until use for ex vivo stability studies. After collection, the perfused intestinal segments were flushed with ice-cold 0.15 M KCl solution and the animal was euthanized and the jejunal intestinal segment detached. The inner intestinal tissue layers are scraped out and homogenized in MES buffer (pH 6.5) in a ratio of 1 part of intestinal tissue to 5 parts buffer. Total protein content of the perfusate and the homogenate were determined using a Biorad protein assay kit. The intestinal homogenate samples were used immediately or rapidly frozen at −80° C. until stability analysis.
(§2) The actual stability testing protocol is as follows: A 0.1 ml aliquot of the synthetic peptide solution (1 mg/ml) was added to 0.9 ml of MES buffer, pH 6.5, intestinal perfusate, or intestinal homogenate at 37° C. Samples were mixed by vortexing and 100 microliter aliquots were removed over a 60 to 90 minute period for analysis of breakdown products. The 100 microliter sample aliquots were diluted 10 fold with water and subjected to solid phase extraction using a Waters Oasis HLB column. Briefly, the columns were preconditioned by passing 1 ml of MeOH and 1 ml of water over the column, and 1 ml of sample was added to the column. The column was washed with 5% methanol:95% water solution to remove proteins and salts, then eluted with 1 ml of 100% methanol. The methanol was removed by vacuum, and the sample was reconstituted in mobile phase for LC/MS/MS analysis.
(§3) LC/MS/MS analysis was performed on a HP1100 HPLC (Hewlett Packard) interfaced with a Quattro II MS/MS detector (Waters/Micromass). For the HPLC separation, a 10 μL aliquot of sample in a mobile phase consisting of an equal volume mixture of acetonitrile/water containing 0.5% formic acid was injected onto a 150 mm×2.2 mm, 5 μm C8 column (Higgins Analytical Inc) and developed at a flow rate of 0.2 ml/min for 5 minutes. The MS detector was used in single ion recording mode at a cone voltage of 50 Volts.

[2] = rat intestinal in situ perfusion permeability; format: in vivo; settings: rat
Method: To determine the intestinal permeability of the various peptide analogs, male albino Sprague-Dawley rats, 9-10 weeks old and weighing 250-350 g were fasted for 18 hours with free access to water. The rats were anesthetized with an intramuscular injection of ketamine/xylazine/butorphanol (87 mg/kg, 6 mg/kg, and 0.2 mg/kg body weight, respectively). The abdomen was opened by a 4-5 cm midline incision and a 10 cm jejunal segment was cannulated on two ends and connected to a syringe pump that pumps the perfusing solution through the cannulated intestine at a constant rate and at a temperature of 37° C. The isolated segment was rinsed with 10 mM MES (pH 6.5) at a flow-rate of 0.5 ml/min in order to clean out any residual debris. Jejunal perfusion was subsequently performed with the same buffer containing 135 mM NaCl, 5 mM KCl and 0.01% PEG 4000 at a flow rate of 0.2 ml/min containing test compound, internal permeability reference standards (e.g., metoprolol) and ^14C-PEG 4000 as a non-absorbable marker for measuring water flux. After steady-state is reached within the perfused intestinal segment, typically 30 minutes after start of perfusion, samples were taken at 10 minute intervals for 1 hour. ^14C (PEG-4000) levels are assayed by scintillation counting and test compounds and internal permeability standard analysis by LC/MS/MS. Samples are frozen and stored at −80° C. until analysis.
The effective permeability (Peff) determined from the in situ perfusion is calculated from equation 1
[formula] where Q is the perfusion buffer flow rate, C′out is the outlet concentration of the compound that has been adjusted for water transport (equation 2) after passing through the intestinal segment, C′in is the inlet or starting concentration of the compound, R is the radius of the intestinal segment (set to 0.2 cm) and L is the length of the intestinal segment. To correct for water transport, a non-absorbed radioactive tracer, ^14C PEG-4000, is included in the perfusion buffer. The Cout/Cin ratio is corrected for water transport according to equation 2:
[formula] where Aout-A0 is equal to the radioactivity counts in the outlet sample minus background (dpm) and Ain-A0 is equal to the radioactivity counts in the inlet sample minus background (dpm).
In certain instances, in addition to perfusing the intestinal segment as described, plasma is drawn through a portal vein cannula to determine the amount of material entering the portal system during the perfusion. This additional experimental step can aid in determining the true intestinal permeability of unstable compounds. After steady state conditions are reached as described above, 0.5 ml aliquots of plasma are withdrawn from the portal vein at regular intervals throughout the experimental time frame. The plasma samples are deproteinated with acetonitrile and the sample is subjected to SPE and LC/MS analysis as described above. From the plasma concentration of compound, the mesenteric permeability can be determined by substitution into equation 3: Flux=A*Pe-mes*Ci 3) where Flux is equal to the portal blood flow (estimated at 1 ml/min in the rat)×the steady state mesenteric blood concentration of the peptide analogs, A is the absorptive area of the intestine (estimated at 12.56 cm^2 in the rat intestine), Pe-mes is the mesenteric Permeability (cm/sec), and Ci is the starting concentration of drug in the perfusate (ug/ml).

human α-thrombin = human α-thrombin (Homo sapiens, UniProt P00734); experiment: inhibition of α-thrombin hydrolysis of chromogenic substrate; format: biochemical; settings: Ki (μM) + SD, αIIa (2 nM), alpha-thrombin 2 nM, Sar-Pro-Arg-paranitroanilide
[3] = stability testing in intestinal perfusate; format: in vitro ADME; settings: rat, 37° C.
Method: as §1, §2, §3

[4] = stability testing in MES buffer (pH 6.5); format: physicochemical; settings: 37° C., read-out: t1/2 (min) MES Buffer (pH 6.5)
Method: as §1
The actual stability testing protocol is as follows: A 0.1 ml aliquot of the synthetic peptide solution (1 mg/ml) was added to 0.9 ml of MES buffer, pH 6.5, intestinal perfusate, or intestinal homogenate at 37° C. Samples were mixed by vortexing and 100 microliter aliquots were removed over a 60 to 90 minute period for analysis of breakdown products. […]

SMILES | half-life at 0.1 mg/ml ([1]; male, Sprague Dawley, intestinal (jejunal) homogenate, pH 6.5, 37° C., read-out: t1/2 (min) Intestinal Homogenate) [min] | stability in intestinal homogenate (FIG. 12) [1] | Papp ([2]; male, Sprague-Dawley, other: in situ jejunal perfusion, pH 6.5, from portal vein plasma during perfusion, read-out: Permeability (mesenteric)) [×10⁻⁶ cm/s] | Papp ([2]; male, Sprague-Dawley, other: in situ jejunal perfusion, pH 6.5, rat jejunal in situ perfusion, read-out: Permeability (in situ)) [×10⁻⁶ cm/s] | Ki (human α-thrombin) [µM] | half-life at 0.1 mg/ml ([3]; male, Sprague Dawley, intestinal (jejunal) perfusate, pH 6.5, rat, read-out: t1/2 (min) Intestinal Perfusate) [min] | half-life at 0.1 mg/ml [4] [min] | t1/2 (min) Intestinal Homogenate ([1]; 37° C.) | Papp ([2]; from portal vein plasma during perfusion, read-out: Permeability (mesenteric)) [×10⁻⁶ cm/s] | Papp ([2]; rat jejunal in situ perfusion, read-out: Permeability (in situ)) [×10⁻⁶ cm/s] | t1/2 (min) Intestinal Perfusate [3] | half-life [4] [min]
Cc1ccc(C[C@H](NC(=O)[C@@H](C)NC(=O)[C@@H]2CCCN2C(=O)[C@@H]2C[C@@H]3CCCC[C@@H]3N2C(=O)[C@H](N)CCCN=C(N)N)C(N)=O)cc1 [rOicPaF(p-Me), D-Arg-Oic-Pro-D-Ala-Phe(p-Me)] (HELM PEPTIDE1{[dR].[O=C([C@@H]1C[C@@H]2CCCC[C@@H]2N1[*:1])[*:2]].P.[dA].[Cc1ccc(C[C@H](N[*:1])C(=O)[*:2])cc1].[am]}$$$$V2.0) | 757 | most stable | 0.309 | 1 | 6.4 to 10.6 | 314 | 363 |  |  |  |  | 
C[C@@H](NC(=O)[C@@H]1CCCN1C(=O)[C@@H]1C[C@@H]2CCCC[C@@H]2N1C(=O)[C@H](N)CCCNC(=N)N)C(=O)N[C@@H](Cc1ccccc1)C(N)=O [rOicPaF] (HELM PEPTIDE1{[dR].[O=C([C@@H]1C[C@@H]2CCCC[C@@H]2N1[*:1])[*:2]].P.[dA].F.[am]}$$$$V2.0) |  | most stable |  |  |  |  |  | stable | 0.139 | 6.2 | stable | 604
